{"source": "paper PMC10208956", "about": "“Microbial peptides activate tumour-infiltrating lymphocytes in glioblastoma” (Nature, 2023)", "format_in_all_cases": "cell-based, human", "key": {"[1]": {"test_system": "TCC88", "test": "Cytokine and chemokine secretion of TCC88 after peptide stimulation", "settings": "TCC88 supernatant after peptide stimulation; no peptide control subtracted; Fig. 3e", "from_the_text": "(§1) Fig. 3 Bacteria-derived and microbiota-derived peptides can stimulate TCC88 as well as the tumour antigen. a, Peptides with the highest predicted stimulatory scores were identified by searching various databases (see Methods). Numbers of unique 10-mer peptides within each database, synthesized peptides, TCC88 stimulatory peptides and the corresponding percentage of stimulatory peptides within each database are shown. […] Cytokine and chemokine secretion of TCC88 was examined and compared upon stimulation with these three different antigens. A specific amount of each cytokine and chemokine (pg ml^−1) was calculated by subtracting the cytokines in the negative control cultures (no peptide control). f, Cytotoxicity of TCC88 against the autologous tumour cell line after stimulation with 2 µM of SIN3A* and HGM3 (data represent the mean percentage of two replicate wells). E:T, effector to target. g, TCC88 was tested with HGM3 (10 µM) or SIN3A* (10 µM) peptides or both together (each 10 µM), and ^3H-thymidine incorporation was measured after 3 days (data represent the mean SI value of three replicate wells ± s.e.m.). Also see Extended Data Figs. 3 and 4. Source data\nSupernatants from each experiment were harvested a day before adding thymidine and frozen at −20 °C. Cytokines were measured using ELISA for human IFNγ ELISA MAX (BioLegend), human GM-CSF DuoSet ELISA (R&D Systems) and bead-based assays. A Synergy H1 hybrid multi-mode reader (Agilent) was used to measure the absorbance. The LEGENDplex Multi-analyte Flow Assay kit (BioLegend) is a 13-plex human TH cytokine panel, which includes IFNγ, TNF, IL-2, IL-4, IL-5, IL-6, IL-9, IL-10, IL-13, IL-17A, IL-17F, IL-21 and IL-22. […] LSR Fortessa Flow Cytometer (BD Biosciences) was used to measure cytokines, and data were analysed using FlowJo (Tree Star). The Human XL Cytokine Luminex Performance Assay Fixed Panel (R&D Systems) contains 45 analytes covering a broad range of various chemokines and cytokines."}, "[2]": {"test_system": "autologous glioblastoma cells", "test": "T cell cytotoxicity assay of TCC88 against the autologous tumour cell line", "settings": "TCC88 stimulated with 2 µM peptide for 72 h; E:T 1:1 and 5:1; 24 h; duplicates; Fig. 3f", "from_the_text": "as §1, with “Source data […]” for “Source data”"}, "[3]": {"test_system": "sorted CD4+ PE and FITC TCRVβ+ TILs", "test": "Proliferation of TCRBV-sorted CD4+ TILs (without TCRBV6.1 and TCRBV6.2)", "settings": "sheet 6b", "from_the_text": "TILs expressing specific TCRBVs were isolated from bulk TILs using a panel of 22 fluorescently labelled TCRBV antibodies that detect 27 different TCRBVs. Twelve TCRBV antibodies were labelled with PE and 10 with FITC (Beckman Coulter). […] After another wash, cells were stained with CD4 (1:100) (APC anti-human CD4, eBioscience), CD8 (1:100) (Pacific blue anti-human CD8, BioLegend), TCRBV-PE (1:25) (Beckman Coulter) and TCRBV-FITC (1:25) (Beckman Coulter) antibodies (Supplementary Table 12) for 30 min. Finally, cells were sorted, seeded at 5 × 10^4 cells per well in T cell medium without h-IL-2 and rested for 1 day before stimulation with 2 × 10^5 cells per well of irradiated autologous PBMCs (45 Gy) and peptide (10 µM).\nTwo populations of CD4^+ PE-TCRVβ^+ and CD4^+ FITC-TCRVβ^+ were sorted and later mixed together. […] Specific amount of each cytokine/chemokine (pg/ml) was calculated by subtracting the cytokines in the negative control cultures (no peptide control). Source data"}}, "data": [{"substance": "Ac-LLEFNHSLGM-NH2 [HGM3]", "values": [{"measurement": "CCL20/MIP-3α", "setting": "[1]", "value": 6.47, "unit": "pg/mL"}, {"measurement": "CD40 Ligand", "setting": "[1]", "value": 1548.01, "unit": "pg/mL"}, {"measurement": "CXCL1/GROα", "setting": "[1]", "value": 80.23, "unit": "pg/mL"}, {"measurement": "CXCL2/GROβ", "setting": "[1]", "value": 106.77, "unit": "pg/mL"}, {"measurement": "CXCL8/IL-8", "setting": "[1]", "value": 0, "unit": "pg/mL"}, {"measurement": "CXCL10/IP-10", "setting": "[1]", "value": 30.99, "unit": "pg/mL"}, {"measurement": "Flt-3 Ligand", "setting": "[1]", "value": 108.26, "unit": "pg/mL"}, {"measurement": "Fractalkine", "setting": "[1]", "value": 325.67, "unit": "pg/mL"}, {"measurement": "GM-CSF", "setting": "[1]", "value": 4861.7, "unit": "pg/mL"}, {"measurement": "Granzyme B", "setting": "[1]", "value": 2019.57, "unit": "pg/mL"}, {"measurement": "IFN-α", "setting": "[1]", "value": 2.54, "unit": "pg/mL"}, {"measurement": "IFN-γ", "setting": "[1]", "value": 781.13, "unit": "pg/mL"}, {"measurement": "IL-1rα", "setting": "[1]", "value": 2003.66, "unit": "pg/mL"}, {"measurement": "IL-1α", "setting": "[1]", "value": 12.29, "unit": "pg/mL"}, {"measurement": "IL-1β", "setting": "[1]", "value": 17.76, "unit": "pg/mL"}, {"measurement": "IL-2", "setting": "[1]", "value": 80.09, "unit": "pg/mL"}, {"measurement": "IL-3", "setting": "[1]", "value": 109.49, "unit": "pg/mL"}, {"measurement": "IL-4", "setting": "[1]", "value": 85.48, "unit": "pg/mL"}, {"measurement": "IL-5", "setting": "[1]", "value": 32.99, "unit": "pg/mL"}, {"measurement": "IL-6", "setting": "[1]", "value": 151.16, "unit": "pg/mL"}, {"measurement": "IL-7", "setting": "[1]", "value": 0.74, "unit": "pg/mL"}, {"measurement": "IL-10", "setting": "[1]", "value": 3974.26, "unit": "pg/mL"}, {"measurement": "IL-12p70", "setting": "[1]", "value": 26.12, "unit": "pg/mL"}, {"measurement": "IL-13", "setting": "[1]", "value": 1591.43, "unit": "pg/mL"}, {"measurement": "IL-15", "setting": "[1]", "value": 2.07, "unit": "pg/mL"}, {"measurement": "IL-17A", "setting": "[1]", "value": 1.97, "unit": "pg/mL"}, {"measurement": "IL-17E/IL-25", "setting": "[1]", "value": 0, "unit": "pg/mL"}, {"measurement": "IL-33", "setting": "[1]", "value": 17.4, "unit": "pg/mL"}, {"measurement": "TNF-α", "setting": "[1]", "value": 4132.48, "unit": "pg/mL"}, {"measurement": "cytotoxic activity against autologous glioblastoma cells (in words)", "setting": "[2]", "value": "comparable"}, {"measurement": "Proliferation (SI) of sorted CD4+ TILs", "setting": "[3]; replicate 1", "value": 1.141}, {"measurement": "Proliferation (SI) of sorted CD4+ TILs", "setting": "[3]; replicate 2", "value": 1.14}, {"measurement": "Proliferation (SI) of sorted CD4+ TILs", "setting": "[3]; replicate 3", "value": 1.525}]}]}
